Consider 22 compounds from patent US11504382B2, “Tricyclic inhibitors of Hepatitis B virus” (Antios Therapeutics, Inc., priority 2018, dated 2022).

Molecules are shown by their SMILES.

What is called EC50 is the concentration at which the effect is half-maximal.

For the assay, the system named is HBV. Kind of assay: HBV inhibition assay in HepAD38 cells (extracellular HBV DNA by direct qPCR). The assay is classed as cell-based, Hepatitis B virus. The following applies: Hepatitis B virus, 96 hours; for EC50: 8-point dose-response curve, read-out: HBV inh EC50. A general note: Quantitative PCR measures a nucleic acid by following its amplification.

Regarding `Cc1noc(N2CC3COc4c(cn(C)c4C(=O)Nc4cc(F)c(F)c(F)c4)S(=O)(=O)NC3C2)n1` (stereo not drawn) [Example E83, cis-7-methyl-2-(3-methyl-1,2,4-oxadiazol-5-yl)-N-(3,4,5-trifluorophenyl)-2,3,3a,4,10,10a-hexahydro-1H,7H-dipyrrolo[3,4-b:3′,4′-f][1,4,5]oxathiazocine-8-carboxamide 5,5-dioxide], the EC50 is less than 1000 nM. The inhibition at 0.1 µM (0.1 μM, relative to non-treated reference, read-out: Anti HBV Activity (conc μM)) was greater than 50%.
Take `Cc1nnc(C(=O)N2CC3NS(=O)(=O)c4cn(C)c(C(=O)Nc5ccc(F)c(C)c5)c4OCC3(C)C2)o1` (stereo not drawn) [Example E86, cis-N-(4-fluoro-3-methylphenyl)-7,10a-dimethyl-2-(5-methyl-1,3,4-oxadiazole-2-carbonyl)-2,3,3a,4,10,10a-hexahydro-1H,7H-dipyrrolo[3,4-b:3′,4′-f][1,4,5]oxathiazocine-8-carboxamide 5,5-dioxide]: the EC50 is less than 1000 nM.
Still for that read-out and setting: the figure for `Cc1cc(NC(=O)c2c3c(cn2C)S(=O)(=O)NC2CN(C(=O)c4ncoc4C)CC2(C)CO3)ccc1F` (stereo not drawn) [Example E87, cis-N-(4-fluoro-3-methylphenyl)-7,10a-dimethyl-2-(5-methyloxazole-4-carbonyl)-2,3,3a,4,10,10a-hexahydro-1H,7H-dipyrrolo[3,4-b:3′,4′-f][1,4,5]oxathiazocine-8-carboxamide 5,5-dioxide] is less than 1000 nM.
Same read-out and setting: with `Cc1cc(NC(=O)c2c3c(cn2C)S(=O)(=O)NC2CN(C(=O)C4(C)CCCO4)CC2(C)CO3)ccc1F` (stereo not drawn) [Example E88, cis-N-(4-fluoro-3-methylphenyl)-7,10a-dimethyl-2-(2-methyltetrahydrofuran-2-carbonyl)-2,3,3a,4,10,10a-hexahydro-1H,7H-dipyrrolo[3,4-b:3′,4′-f][1,4,5]oxathiazocine-8-carboxamide 5,5-dioxide] the figure was less than 1000 nM; with `Cc1cc(NC(=O)c2c3c(cn2C)S(=O)(=O)NC2CN(C(=O)C4(C)COC4)CC2(C)CO3)ccc1F` (stereo not drawn) [Example E89, cis-N-(4-fluoro-3-methylphenyl)-7,10a-dimethyl-2-(3-methyloxetane-3-carbonyl)-2,3,3a,4,10,10a-hexahydro-1H,7H-dipyrrolo[3,4-b:3′,4′-f][1,4,5]oxathiazocine-8-carboxamide 5,5-dioxide], less than 1000 nM.
Same read-out and setting: the figure for `Cc1cc(NC(=O)c2c3c(cn2C)S(=O)(=O)NC2CN(C(=O)C45CC(CO4)C5)CC2(C)CO3)ccc1F` (stereo not drawn) [Example E90, cis-2-(2-oxabicyclo[2.1.1]hexane-1-carbonyl)-N-(4-fluoro-3-methylphenyl)-7,10a-dimethyl-2,3,3a,4,10,10a-hexahydro-1H,7H-dipyrrolo[3,4-b:3′,4′-f][1,4,5]oxathiazocine-8-carboxamide 5,5-dioxide] is less than 1000 nM.
Take `Cc1nnc(C(=O)N2C[C@H]3COc4c(cn(C)c4C(=O)Nc4cc(F)c(F)c(F)c4)S(=O)(=O)N[C@H]3C2)o1` [Example E97, (3aR,10aR)-7-methyl-2-(5-methyl-1,3,4-oxadiazole-2-carbonyl)-N-(3,4,5-trifluorophenyl)-2,3,3a,4,10,10a-hexahydro-1H,7H-dipyrrolo[3,4-b:3′,4′-f][1,4,5]oxathiazocine-8-carboxamide 5,5-dioxide]: the concentration giving a half-maximal response (EC50) was less than 1000 nM.
On the same count and under the same terms, with `Cc1nnc(C(=O)N2C[C@H]3COc4c(cn(C)c4C(=O)Nc4ccc(F)c(C)c4)S(=O)(=O)N[C@H]3C2)o1` [Example E98, (3aR,10aR)—N-(4-fluoro-3-methylphenyl)-7-methyl-2-(5-methyl-1,3,4-oxadiazole-2-carbonyl)-2,3,3a,4,10,10a-hexahydro-1H,7H-dipyrrolo[3,4-b:3′,4′-f][1,4,5]oxathiazocine-8-carboxamide 5,5-dioxide] the figure was less than 1000 nM; with `Cc1nnc(C(=O)N2C[C@H]3COc4c(cn(C)c4C(=O)Nc4ccc(F)c(Cl)c4)S(=O)(=O)N[C@H]3C2)o1` [Example E99, (3aR,10aR)—N-(3-chloro-4-fluorophenyl)-7-methyl-2-(5-methyl-1,3,4-oxadiazole-2-carbonyl)-2,3,3a,4,10,10a-hexahydro-1H,7H-dipyrrolo[3,4-b:3′,4′-f][1,4,5]oxathiazocine-8-carboxamide 5,5-dioxide], less than 1000 nM; with `Cc1cc(NC(=O)c2c3c(cn2C)S(=O)(=O)N[C@H]2CN(C(=O)[C@H]4CCCO4)C[C@H]2CO3)ccc1F` [Example E100, (3aR,10aR)—N-(4-fluoro-3-methylphenyl)-7-methyl-2-((R)-tetrahydrofuran-2-carbonyl)-2,3,3a,4,10,10a-hexahydro-1H,7H-dipyrrolo[3,4-b:3′,4′-f][1,4,5]oxathiazocine-8-carboxamide 5,5-dioxide], less than 1000 nM.
The same measure, in the same setting: with `Cc1cc(NC(=O)c2c3c(cn2C)S(=O)(=O)N[C@H]2CN(C(=O)[C@@H]4CCCO4)C[C@H]2CO3)ccc1F` [Example E101, (3aR,10aR)—N-(4-fluoro-3-methylphenyl)-7-methyl-2-((S)-tetrahydrofuran-2-carbonyl)-2,3,3a,4,10,10a-hexahydro-1H,7H-dipyrrolo[3,4-b:3′,4′-f][1,4,5]oxathiazocine-8-carboxamide 5,5-dioxide] the figure was less than 1000 nM.
The same measure, in the same setting: the figure for `Cn1cc2c(c1C(=O)Nc1cc(F)c(F)c(F)c1)OC[C@@H]1CN(C(=O)c3nnc(N)o3)C[C@@H]1NS2(=O)=O` [Example E102, (3aR,10aR)-2-(5-amino-1,3,4-oxadiazole-2-carbonyl)-7-methyl-N-(3,4,5-trifluorophenyl)-2,3,3a,4,10,10a-hexahydro-1H,7H-dipyrrolo[3,4-b:3′,4′-f][1,4,5]oxathiazocine-8-carboxamide 5,5-dioxide] is less than 1000 nM; for `Cc1noc(C(=O)N2C[C@H]3COc4c(cn(C)c4C(=O)Nc4ccc(F)c(C)c4)S(=O)(=O)N[C@H]3C2)n1` [Example E103, (3aR,10aR)—N-(4-fluoro-3-methylphenyl)-7-methyl-2-(3-methyl-1,2,4-oxadiazole-5-carbonyl)-2,3,3a,4,10,10a-hexahydro-1H,7H-dipyrrolo[3,4-b:3′,4′-f][1,4,5]oxathiazocine-8-carboxamide 5,5-dioxide] it is less than 1000 nM.
Take `Cc1cc(NC(=O)c2c3c(cn2C)S(=O)(=O)N[C@H]2CN(C(=O)c4cocn4)C[C@H]2CO3)ccc1F` [Example E104, (3aR,10aR)—N-(4-fluoro-3-methylphenyl)-7-methyl-2-(oxazole-4-carbonyl)-2,3,3a,4,10,10a-hexahydro-1H,7H-dipyrrolo[3,4-b:3′,4′-f][1,4,5]oxathiazocine-8-carboxamide 5,5-dioxide]: the EC50 is less than 1000 nM.
Still for that read-out and setting: with `Cc1cc(NC(=O)c2c3c(cn2C)S(=O)(=O)N[C@H]2CN(C(=O)c4cnon4)C[C@H]2CO3)ccc1F` [Example E105, (3aR,10aR)—N-(4-fluoro-3-methylphenyl)-7-methyl-2-(1,2,5-oxadiazole-3-carbonyl)-2,3,3a,4,10,10a-hexahydro-1H,7H-dipyrrolo[3,4-b:3′,4′-f][1,4,5]oxathiazocine-8-carboxamide 5,5-dioxide] the figure was less than 1000 nM.
On the same count and under the same terms, with `Cn1cc2c(c1C(=O)Nc1cc(F)c(F)c(F)c1)OC[C@@H]1CN(C(=O)c3cocn3)C[C@@H]1NS2(=O)=O` [Example E106, (3aR,10aR)-7-methyl-2-(oxazole-4-carbonyl)-N-(3,4,5-trifluorophenyl)-2,3,3a,4,10,10a-hexahydro-1H,7H-dipyrrolo[3,4-b:3′,4′-f][1,4,5]oxathiazocine-8-carboxamide 5,5-dioxide] the figure was less than 1000 nM.
`Cc1nnc(C(=O)N2C[C@H]3COc4c(cn(C)c4C(=O)Nc4ccc(F)c(C)c4)S(=O)(=O)N[C@H]3C2)s1` [Example E107, (3aR,10aR)—N-(4-fluoro-3-methylphenyl)-7-methyl-2-(5-methyl-1,3,4-thiadiazole-2-carbonyl)-2,3,3a,4,10,10a-hexahydro-1H,7H-dipyrrolo[3,4-b:3′,4′-f][1,4,5]oxathiazocine-8-carboxamide 5,5-dioxide]: the concentration giving a half-maximal response (EC50) was less than 1000 nM.
As for `Cc1cc(NC(=O)c2c3c(cn2C)S(=O)(=O)N[C@H]2CN(C(=O)C4COC4)C[C@H]2CO3)ccc1F` [Example E108, (3aR,10aR)—N-(4-fluoro-3-methylphenyl)-7-methyl-2-(oxetane-3-carbonyl)-2,3,3a,4,10,10a-hexahydro-1H,7H-dipyrrolo[3,4-b:3′,4′-f][1,4,5]oxathiazocine-8-carboxamide 5,5-dioxide], the concentration for a half-maximal effect (EC50) was less than 1000 nM.
Same read-out and setting: the figure for `Cc1cc(NC(=O)c2c3c(cn2C)S(=O)(=O)N[C@H]2CN(C(=O)C45CC(CO4)C5)C[C@H]2CO3)ccc1F` [Example E109, (3aR,10aR)-2-(2-oxabicyclo[2.1.1]hexane-1-carbonyl)-N-(4-fluoro-3-methylphenyl)-7-methyl-2,3,3a,4,10,10a-hexahydro-1H,7H-dipyrrolo[3,4-b:3′,4′-f][1,4,5]oxathiazocine-8-carboxamide 5,5-dioxide] is less than 1000 nM; for `Cc1cc(NC(=O)c2c3c(cn2C)S(=O)(=O)N[C@H]2CN(C(=O)C4CCO4)C[C@H]2CO3)ccc1F` (stereo partly drawn) [Example E110, (3aR,10aR)—N-(4-fluoro-3-methylphenyl)-7-methyl-2-(oxetane-2-carbonyl)-2,3,3a,4,10,10a-hexahydro-1H,7H-dipyrrolo[3,4-b:3′,4′-f][1,4,5]oxathiazocine-8-carboxamide 5,5-dioxide] it is less than 1000 nM; for `Cc1cc(NC(=O)c2c3c(cn2C)S(=O)(=O)N[C@H]2CN(C(=O)C4(C)CCCO4)C[C@H]2CO3)ccc1F` (stereo partly drawn) [Example E111, (3aR,10aR)—N-(4-fluoro-3-methylphenyl)-7-methyl-2-(2-methyltetrahydrofuran-2-carbonyl)-2,3,3a,4,10,10a-hexahydro-1H,7H-dipyrrolo[3,4-b:3′,4′-f][1,4,5]oxathiazocine-8-carboxamide 5,5-dioxide] it is less than 1000 nM.
Consider `Cc1nc(C(=O)N2C[C@H]3COc4c(cn(C)c4C(=O)Nc4ccc(F)c(C)c4)S(=O)(=O)N[C@H]3C2)co1` [Example E112, (3aR,10aR)—N-(4-fluoro-3-methylphenyl)-7-methyl-2-(2-methyloxazole-4-carbonyl)-2,3,3a,4,10,10a-hexahydro-1H,7H-dipyrrolo[3,4-b:3′,4′-f][1,4,5]oxathiazocine-8-carboxamide 5,5-dioxide], for which the EC50 is less than 1000 nM.
